The numbers were not newly measured in patent US7704745B2 (priority 2001, dated 2010), which cites them from elsewhere.

The test system of the data set is human hepatocyte and neuroblastoma cells. As to conditions: cited from earlier work.

In the case of `CCOP(=O)(OCC)Oc1ccc([N+](=O)[O-])cc1` [paraoxon], the “effect on hepatocyte and neuroblastoma cell metabolism” value is reported as “opposite effects”. On to `CCOP(=S)(OCC)Oc1ccc([N+](=O)[O-])cc1` [parathion], for which the “effect on hepatocyte and neuroblastoma cell metabolism” value is listed as “opposite effects”.
